Experimental data from patent US9067894B1, “Compound, composition, and method of activating GIRK potassium channel and use of same for treating conditions of interest” (Vanderbilt University, priority 2013, dated 2015).
Entries after “also recorded” stand apart in the source; their conditions may differ.

Experiments:
Histamine H2 = target: T1, Histamine H2 (Homo sapiens, UniProt P25021); assay: Radioligand displacement (Ricerca); type: binding
T1 construct: Ricerca (contract laboratory that ran the panel)

Glutamate (kainate) = assay: Radioligand displacement (Ricerca); type: binding, rat; conditions: 10 μM
Histamine H1 = target: T2, Histamine H1 (Homo sapiens, UniProt P35367); assay: Radioligand displacement (Ricerca); type: binding
T2 construct: Ricerca

Bradykinin B1 = target: T3, Bradykinin B1 (Homo sapiens, UniProt P46663); assay: Radioligand displacement (Ricerca); type: binding
T3 construct: Ricerca

Kir2.1 = target: T4, Kir2.1 (Homo sapiens, UniProt P63252); assay: Thallium flux assay, Kir2.1-expressing cells; type: cell-based
T4 construct: expressed in transfected cells; host or cells: T-REx-293
Description: (§1) Cell Line Construction and Cell Culture. HEK-293 cells co-expressing human GIRK1/2 and rat mGlu8 were generated as previously described (Niswender et al., 2008). A HEK-293 cell line (ATCC, Manassas, Va.) expressing human GIRK1 and human GIRK2 was constructed by transfecting HEK-293 cells with GIRK1 and GIRK2 (Origene, Rockville, Md.) cloned into the pBudCE4.1 vector (Life Technologies, Carlsbad, Calif.) using FuGene 6 (Promega, Madison, Wis.) transfection reagent. Unless otherwise noted, other ion channel-expressing cells were prepared by transfecting HEK-293 cells with individual or combinations of subunits: GIRK1, pCMV6-A-BSD; GIRK2, pCMV6-A-puro; GIRK3, pCMV6-A-hygro; GIRK4, pCMV6-A-AC; Kv7.4, pIRESneo3. The Kir2.1 and hERG-expressing cell lines were made by transfecting T-REx-293 cells (Life Technologies, Carlsbad, Calif.) with Kir2.1 and Kv11.1, respectively, cloned into pcDNA5TO. Monoclonal cell lines were produced by limiting-dilution cloning of antibiotic-resistant cells and functional selection using the thallium flux assay described below. Unless otherwise noted, cells were maintained in Minimal Essential Medium, Alpha Medium (Mediatech, Manassas, Va.) supplemented with 10% fetal bovine serum (Sigma-Aldrich, Saint Louis, Mo.) and GlutaGro (Mediatech, Manassas, Va.), referred to henceforth as cell culture medium. […]

Serotonin 5-HT1A = target: T5, Serotonin 5-HT1A (Homo sapiens, UniProt P08908); assay: Radioligand displacement (Ricerca); type: binding
T5 construct: Ricerca (contract laboratory that ran the panel)

Potassium channel KATP = assay: Radioligand displacement (Ricerca); type: binding, human; conditions: 10 μM
Glutamate (NMDA agonism) = assay: Radioligand displacement (Ricerca); type: binding, rat; conditions: 10 μM
Transporter, NET = target: T6, Transporter, NET (Homo sapiens, UniProt P23975); assay: Radioligand displacement (Ricerca); type: binding
T6 construct: Ricerca (contract panel)

Cannabinoid CB1 = target: T7, Cannabinoid CB1 (Homo sapiens, UniProt P21554); assay: Radioligand displacement (Ricerca); type: binding
T7 construct: Ricerca

GIRK2 = target: T8, GIRK2 (Homo sapiens, UniProt P48051); assay: Thallium flux assay, HEK-293 cells expressing GIRK2 alone; type: cell-based; conditions: cell line GIRK2
T8 construct: expressed in transfected cells; host or cells: HEK-293
T8 sequence (P48051 1-423): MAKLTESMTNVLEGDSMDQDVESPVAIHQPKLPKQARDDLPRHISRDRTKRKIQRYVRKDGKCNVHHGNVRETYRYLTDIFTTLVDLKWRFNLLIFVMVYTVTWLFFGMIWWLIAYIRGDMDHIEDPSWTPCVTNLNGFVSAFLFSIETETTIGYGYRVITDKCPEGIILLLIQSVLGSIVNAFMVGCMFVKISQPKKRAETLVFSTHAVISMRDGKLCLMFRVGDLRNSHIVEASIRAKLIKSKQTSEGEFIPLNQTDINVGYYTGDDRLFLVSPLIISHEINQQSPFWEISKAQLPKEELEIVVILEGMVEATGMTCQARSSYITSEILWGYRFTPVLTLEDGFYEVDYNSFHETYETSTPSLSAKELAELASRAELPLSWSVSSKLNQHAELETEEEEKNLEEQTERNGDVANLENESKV
Description: as §1

T4 sequence (P63252 whole entry): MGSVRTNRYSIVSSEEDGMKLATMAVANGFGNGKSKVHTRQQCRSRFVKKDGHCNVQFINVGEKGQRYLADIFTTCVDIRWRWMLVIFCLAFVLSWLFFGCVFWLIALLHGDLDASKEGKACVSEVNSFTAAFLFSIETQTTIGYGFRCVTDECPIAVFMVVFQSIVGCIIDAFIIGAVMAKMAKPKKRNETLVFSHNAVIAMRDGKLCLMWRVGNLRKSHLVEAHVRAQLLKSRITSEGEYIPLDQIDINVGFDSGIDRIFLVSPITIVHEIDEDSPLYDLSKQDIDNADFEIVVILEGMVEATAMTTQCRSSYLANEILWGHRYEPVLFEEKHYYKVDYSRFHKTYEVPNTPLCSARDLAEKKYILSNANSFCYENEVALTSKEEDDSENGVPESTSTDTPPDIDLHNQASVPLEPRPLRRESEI
T1 sequence (P25021 whole entry): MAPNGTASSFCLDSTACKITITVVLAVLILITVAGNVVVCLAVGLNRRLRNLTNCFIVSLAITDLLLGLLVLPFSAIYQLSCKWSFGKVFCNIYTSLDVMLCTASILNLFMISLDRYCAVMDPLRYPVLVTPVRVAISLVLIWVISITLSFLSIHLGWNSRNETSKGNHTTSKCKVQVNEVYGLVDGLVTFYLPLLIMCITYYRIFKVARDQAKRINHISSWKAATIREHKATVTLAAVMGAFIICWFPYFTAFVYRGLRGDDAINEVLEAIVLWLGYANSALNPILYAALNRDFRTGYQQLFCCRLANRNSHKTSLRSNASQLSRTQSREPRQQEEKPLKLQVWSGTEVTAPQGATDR
T6 sequence (P23975 whole entry): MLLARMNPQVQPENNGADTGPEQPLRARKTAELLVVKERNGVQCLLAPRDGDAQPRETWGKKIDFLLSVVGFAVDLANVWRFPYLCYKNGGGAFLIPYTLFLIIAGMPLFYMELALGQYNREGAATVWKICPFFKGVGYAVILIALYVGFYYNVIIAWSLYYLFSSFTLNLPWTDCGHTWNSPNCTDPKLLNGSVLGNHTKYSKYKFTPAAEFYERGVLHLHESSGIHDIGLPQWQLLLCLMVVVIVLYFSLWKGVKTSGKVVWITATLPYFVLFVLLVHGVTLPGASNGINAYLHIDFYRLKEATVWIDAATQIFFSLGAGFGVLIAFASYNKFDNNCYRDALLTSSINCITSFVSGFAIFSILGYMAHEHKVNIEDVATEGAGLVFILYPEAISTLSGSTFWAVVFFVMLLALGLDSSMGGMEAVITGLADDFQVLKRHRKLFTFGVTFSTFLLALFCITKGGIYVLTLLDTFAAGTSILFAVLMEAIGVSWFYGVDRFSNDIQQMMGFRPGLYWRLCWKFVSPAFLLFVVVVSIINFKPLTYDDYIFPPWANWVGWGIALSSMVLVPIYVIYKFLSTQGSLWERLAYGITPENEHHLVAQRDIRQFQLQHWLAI
T7 sequence (P21554 whole entry): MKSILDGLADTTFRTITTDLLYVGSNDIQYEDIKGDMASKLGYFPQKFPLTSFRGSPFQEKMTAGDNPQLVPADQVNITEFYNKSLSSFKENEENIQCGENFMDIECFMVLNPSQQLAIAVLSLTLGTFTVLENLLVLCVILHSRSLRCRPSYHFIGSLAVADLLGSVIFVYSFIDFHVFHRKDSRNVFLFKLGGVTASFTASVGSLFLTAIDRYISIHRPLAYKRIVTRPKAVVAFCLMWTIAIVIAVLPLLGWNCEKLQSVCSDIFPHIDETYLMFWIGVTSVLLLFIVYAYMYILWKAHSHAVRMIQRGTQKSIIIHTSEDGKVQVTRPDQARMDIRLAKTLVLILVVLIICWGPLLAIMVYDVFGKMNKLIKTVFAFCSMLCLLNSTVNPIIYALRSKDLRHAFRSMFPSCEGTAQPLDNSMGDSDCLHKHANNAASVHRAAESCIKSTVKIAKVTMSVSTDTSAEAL
T3 sequence (P46663 whole entry): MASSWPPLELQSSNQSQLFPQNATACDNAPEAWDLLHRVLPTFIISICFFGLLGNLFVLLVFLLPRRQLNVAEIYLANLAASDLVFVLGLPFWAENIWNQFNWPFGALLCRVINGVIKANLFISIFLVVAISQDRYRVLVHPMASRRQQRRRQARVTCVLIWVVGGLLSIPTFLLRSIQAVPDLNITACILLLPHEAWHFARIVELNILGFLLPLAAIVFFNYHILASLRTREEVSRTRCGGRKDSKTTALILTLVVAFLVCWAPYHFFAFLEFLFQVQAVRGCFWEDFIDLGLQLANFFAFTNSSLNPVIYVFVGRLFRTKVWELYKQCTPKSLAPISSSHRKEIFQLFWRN
T5 sequence (P08908 whole entry): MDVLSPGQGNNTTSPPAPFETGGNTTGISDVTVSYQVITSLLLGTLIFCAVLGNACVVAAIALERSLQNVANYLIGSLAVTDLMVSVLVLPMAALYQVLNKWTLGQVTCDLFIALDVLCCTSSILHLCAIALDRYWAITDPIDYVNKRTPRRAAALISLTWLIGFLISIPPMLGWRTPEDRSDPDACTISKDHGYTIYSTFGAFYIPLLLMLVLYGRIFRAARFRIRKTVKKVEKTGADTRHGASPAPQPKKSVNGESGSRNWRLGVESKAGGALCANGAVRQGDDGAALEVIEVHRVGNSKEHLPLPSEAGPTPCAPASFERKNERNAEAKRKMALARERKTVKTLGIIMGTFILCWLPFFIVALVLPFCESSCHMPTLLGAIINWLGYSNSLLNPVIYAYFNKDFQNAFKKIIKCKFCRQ
T2 sequence (P35367 whole entry): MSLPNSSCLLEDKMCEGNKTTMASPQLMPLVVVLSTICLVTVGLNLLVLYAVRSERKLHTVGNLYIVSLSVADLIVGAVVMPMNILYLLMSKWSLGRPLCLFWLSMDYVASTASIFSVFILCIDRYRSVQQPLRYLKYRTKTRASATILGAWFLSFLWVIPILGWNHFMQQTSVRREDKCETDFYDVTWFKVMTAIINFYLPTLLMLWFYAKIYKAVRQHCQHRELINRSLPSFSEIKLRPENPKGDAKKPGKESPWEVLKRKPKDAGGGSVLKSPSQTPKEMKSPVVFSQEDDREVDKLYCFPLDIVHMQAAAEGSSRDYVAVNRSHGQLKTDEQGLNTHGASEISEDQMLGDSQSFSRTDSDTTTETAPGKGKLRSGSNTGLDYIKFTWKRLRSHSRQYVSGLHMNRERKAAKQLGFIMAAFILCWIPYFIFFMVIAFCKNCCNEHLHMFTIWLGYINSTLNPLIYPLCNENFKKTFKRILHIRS

With `Cc1cc(NC(=O)Nc2ccc(F)c(F)c2)n(-c2ccccc2)n1` [VU0456810, 1-(3,4-difluorophenyl)-3-(3-methyl-1-phenyl-1H-pyrazol-5-yl)urea] the inhibition at 10 µM (Histamine H2) was -2%, the “% Inhibition” value (Glutamate (kainate)) was 1% and the inhibition at 10 µM (Histamine H1) was -7%. The inhibition at 10 µM (Bradykinin B1) was -2%, the Potency (Kir2.1) was “Inactive” and the inhibition at 10 µM (Serotonin 5-HT1A) was 0%. For the same compound, the “% Inhibition” value (Potassium channel KATP) was 2%, the “% Inhibition” value (Glutamate (NMDA agonism)) was 21% and the inhibition at 10 µM (Transporter, NET) was 15%. For the same compound, the inhibition at 10 µM (Cannabinoid CB1) was 8%, the “EC50 Thallium Flux” value (GIRK2) was “complete inability to modulate; also recorded: Inactive” and the “EC50 Thallium Flux” value (GIRK2; listed as 2) was “inactive”.
